Results as given in article PMC11850817 (Scientific Reports, 2025).

Tests used:
MAPK1 (ERK2) = MAPK1 (ERK2) (Homo sapiens, UniProt P28482); test: Radiometric kinase assay; type: biochemical; settings: read-out: Kinase inhibition (%) MAPK1 (ERK2)
CHEK1 = CHEK1 (Homo sapiens, UniProt O14757); test: Radiometric kinase assay; type: biochemical; settings: read-out: Kinase inhibition (%) CHEK1
PDGFRA (PDGFRα) = PDGFRA (PDGFRα) (Homo sapiens, UniProt P16234); test: Radiometric kinase assay; type: biochemical; settings: read-out: Kinase inhibition (%) PDGFRA (PDGFRα)
AsPC-1 cells [1] = test: Apoptosis by Hoechst 33,258 staining; type: cell-based, human; settings: AsPC-1, 10 and 30 µM, 48 h
CDK2/cyclin A = CDK2/cyclin A (Homo sapiens, UniProt P24941); test: Radiometric kinase assay; type: biochemical; settings: read-out: Kinase inhibition (%) CDK2/cyclin A
EBC-1 = test: MTT antiproliferative assay, EBC-1; type: cell-based, human; settings: Homo sapiens, EBC-1, 72 h, read-out: IC50 EBC-1
Mia-Paca-2 = test: MTT antiproliferative assay, Mia-Paca-2; type: cell-based, human; settings: Homo sapiens, MIA PaCa-2, 72 h, read-out: IC50 Mia-Paca-2
PIK3CA = PIK3CA (Homo sapiens, UniProt P42336); test: Radiometric kinase assay; type: biochemical; settings: read-out: Kinase inhibition (%) PIK3CA
AsPC-1 cells [2] = test: Cell cycle test, RNase/PI flow cytometry; type: cell-based, human; settings: AsPC-1, 3, 10, 30, 50 µM, 48 h
HT-29 = test: MTT antiproliferative assay, HT-29; type: cell-based, human; settings: Homo sapiens, HT-29, 72 h, read-out: IC50 HT-29
ERBB2 (Her-2) = ERBB2 (Her-2) (Homo sapiens, UniProt P04626); test: Radiometric kinase assay; type: biochemical; settings: read-out: Kinase inhibition (%) ERBB2 (Her-2)
Sequence of ERBB2 (Her-2) (P04626 23-1255): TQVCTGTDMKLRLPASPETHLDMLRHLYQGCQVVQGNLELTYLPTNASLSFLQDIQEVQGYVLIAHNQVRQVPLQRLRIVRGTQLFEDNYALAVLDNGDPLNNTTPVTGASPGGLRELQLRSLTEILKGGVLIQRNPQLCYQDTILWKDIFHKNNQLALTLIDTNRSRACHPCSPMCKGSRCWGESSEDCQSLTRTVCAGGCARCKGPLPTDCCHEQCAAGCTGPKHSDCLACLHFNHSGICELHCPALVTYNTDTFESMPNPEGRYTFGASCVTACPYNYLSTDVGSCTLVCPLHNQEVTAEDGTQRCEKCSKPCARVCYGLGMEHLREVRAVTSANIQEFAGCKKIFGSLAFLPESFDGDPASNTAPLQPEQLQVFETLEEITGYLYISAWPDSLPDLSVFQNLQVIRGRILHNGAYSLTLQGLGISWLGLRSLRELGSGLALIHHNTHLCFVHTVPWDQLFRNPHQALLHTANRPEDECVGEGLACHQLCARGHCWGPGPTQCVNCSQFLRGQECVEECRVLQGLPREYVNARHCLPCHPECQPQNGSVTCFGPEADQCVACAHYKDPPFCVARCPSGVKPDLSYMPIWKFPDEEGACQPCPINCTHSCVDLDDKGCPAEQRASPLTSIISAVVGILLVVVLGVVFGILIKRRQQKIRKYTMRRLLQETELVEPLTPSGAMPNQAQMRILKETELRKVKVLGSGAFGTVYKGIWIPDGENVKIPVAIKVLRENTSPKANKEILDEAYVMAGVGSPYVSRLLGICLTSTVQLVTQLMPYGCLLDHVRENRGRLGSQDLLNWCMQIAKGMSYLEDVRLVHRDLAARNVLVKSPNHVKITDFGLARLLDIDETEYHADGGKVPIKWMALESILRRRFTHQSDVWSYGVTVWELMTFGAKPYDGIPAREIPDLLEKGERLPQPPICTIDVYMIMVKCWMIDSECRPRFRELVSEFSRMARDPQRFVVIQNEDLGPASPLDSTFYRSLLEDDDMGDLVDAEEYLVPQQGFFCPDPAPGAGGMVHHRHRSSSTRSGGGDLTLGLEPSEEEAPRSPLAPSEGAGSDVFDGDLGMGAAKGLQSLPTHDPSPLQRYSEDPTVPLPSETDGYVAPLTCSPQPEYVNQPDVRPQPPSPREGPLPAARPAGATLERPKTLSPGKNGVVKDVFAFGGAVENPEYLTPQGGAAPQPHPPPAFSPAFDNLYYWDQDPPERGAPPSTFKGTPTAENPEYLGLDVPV

Sequence of PDGFRA (PDGFRα) (P16234 24-1089): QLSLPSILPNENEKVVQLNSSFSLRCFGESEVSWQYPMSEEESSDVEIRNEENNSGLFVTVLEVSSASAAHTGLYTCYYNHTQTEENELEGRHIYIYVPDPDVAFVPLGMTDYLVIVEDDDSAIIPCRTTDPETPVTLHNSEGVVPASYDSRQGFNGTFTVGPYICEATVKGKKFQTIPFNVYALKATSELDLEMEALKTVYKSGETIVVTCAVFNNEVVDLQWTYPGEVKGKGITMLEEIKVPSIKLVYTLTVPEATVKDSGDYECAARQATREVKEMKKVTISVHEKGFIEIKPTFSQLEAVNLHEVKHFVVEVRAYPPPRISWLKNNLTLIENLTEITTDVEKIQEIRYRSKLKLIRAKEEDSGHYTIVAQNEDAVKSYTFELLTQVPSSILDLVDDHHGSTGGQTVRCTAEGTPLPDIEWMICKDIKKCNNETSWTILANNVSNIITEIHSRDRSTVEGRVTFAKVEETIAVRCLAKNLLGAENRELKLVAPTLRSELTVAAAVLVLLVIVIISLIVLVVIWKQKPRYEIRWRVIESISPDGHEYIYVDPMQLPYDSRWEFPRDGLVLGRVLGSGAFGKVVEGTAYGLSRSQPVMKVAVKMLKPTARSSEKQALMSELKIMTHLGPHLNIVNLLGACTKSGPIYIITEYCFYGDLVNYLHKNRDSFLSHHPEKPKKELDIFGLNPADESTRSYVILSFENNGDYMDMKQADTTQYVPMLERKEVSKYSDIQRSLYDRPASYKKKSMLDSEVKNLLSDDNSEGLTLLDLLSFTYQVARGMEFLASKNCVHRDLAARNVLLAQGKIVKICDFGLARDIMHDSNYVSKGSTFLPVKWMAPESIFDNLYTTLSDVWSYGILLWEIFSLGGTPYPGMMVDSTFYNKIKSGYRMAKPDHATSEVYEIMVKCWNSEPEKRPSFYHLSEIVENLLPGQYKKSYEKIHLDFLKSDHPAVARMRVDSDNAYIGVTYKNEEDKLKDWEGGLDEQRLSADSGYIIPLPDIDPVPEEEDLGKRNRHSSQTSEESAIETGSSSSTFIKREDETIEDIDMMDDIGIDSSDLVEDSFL
Sequence of CHEK1 (O14757 whole entry): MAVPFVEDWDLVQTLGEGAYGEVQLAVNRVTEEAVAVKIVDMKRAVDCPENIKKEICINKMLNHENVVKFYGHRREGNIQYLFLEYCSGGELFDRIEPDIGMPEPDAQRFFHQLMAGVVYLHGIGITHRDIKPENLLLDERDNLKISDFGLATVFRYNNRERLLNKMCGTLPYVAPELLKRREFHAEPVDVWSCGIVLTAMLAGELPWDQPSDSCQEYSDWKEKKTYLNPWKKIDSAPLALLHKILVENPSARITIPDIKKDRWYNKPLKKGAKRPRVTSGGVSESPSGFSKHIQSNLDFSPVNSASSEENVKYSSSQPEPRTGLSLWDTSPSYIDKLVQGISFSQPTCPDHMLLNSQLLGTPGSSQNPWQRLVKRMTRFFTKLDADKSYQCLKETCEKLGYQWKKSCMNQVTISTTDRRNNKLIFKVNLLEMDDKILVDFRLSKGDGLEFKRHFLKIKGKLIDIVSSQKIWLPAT
Sequence of PIK3CA (P42336 whole entry): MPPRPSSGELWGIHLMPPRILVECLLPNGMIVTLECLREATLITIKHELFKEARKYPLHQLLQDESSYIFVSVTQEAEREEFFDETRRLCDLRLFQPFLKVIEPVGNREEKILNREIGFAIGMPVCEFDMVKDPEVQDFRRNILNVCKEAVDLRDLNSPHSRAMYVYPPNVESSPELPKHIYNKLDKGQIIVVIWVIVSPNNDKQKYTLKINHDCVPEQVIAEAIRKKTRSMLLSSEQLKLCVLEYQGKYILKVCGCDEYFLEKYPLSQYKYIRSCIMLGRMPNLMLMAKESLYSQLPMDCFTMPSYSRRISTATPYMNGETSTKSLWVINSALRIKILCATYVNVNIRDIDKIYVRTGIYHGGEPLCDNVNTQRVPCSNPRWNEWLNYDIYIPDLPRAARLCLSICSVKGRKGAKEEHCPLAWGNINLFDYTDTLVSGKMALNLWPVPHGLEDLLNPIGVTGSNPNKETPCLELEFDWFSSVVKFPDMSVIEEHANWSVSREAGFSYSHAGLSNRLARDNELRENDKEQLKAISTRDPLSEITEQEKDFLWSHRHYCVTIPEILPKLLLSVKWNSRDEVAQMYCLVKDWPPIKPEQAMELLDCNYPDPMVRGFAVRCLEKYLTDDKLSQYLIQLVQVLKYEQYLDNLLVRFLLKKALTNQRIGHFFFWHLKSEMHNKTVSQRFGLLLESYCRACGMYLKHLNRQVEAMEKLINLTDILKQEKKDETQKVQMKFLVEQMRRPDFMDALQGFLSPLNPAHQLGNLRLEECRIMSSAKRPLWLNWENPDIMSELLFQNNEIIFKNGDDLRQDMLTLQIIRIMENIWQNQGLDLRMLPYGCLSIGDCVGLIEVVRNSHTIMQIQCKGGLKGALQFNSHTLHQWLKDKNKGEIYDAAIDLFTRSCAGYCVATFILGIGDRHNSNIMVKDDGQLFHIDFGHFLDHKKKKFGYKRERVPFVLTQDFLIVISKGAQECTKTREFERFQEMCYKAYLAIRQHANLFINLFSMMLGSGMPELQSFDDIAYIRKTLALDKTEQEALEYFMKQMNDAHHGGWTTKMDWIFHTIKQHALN
Sequence of PIK3CA (P27986 whole entry partner): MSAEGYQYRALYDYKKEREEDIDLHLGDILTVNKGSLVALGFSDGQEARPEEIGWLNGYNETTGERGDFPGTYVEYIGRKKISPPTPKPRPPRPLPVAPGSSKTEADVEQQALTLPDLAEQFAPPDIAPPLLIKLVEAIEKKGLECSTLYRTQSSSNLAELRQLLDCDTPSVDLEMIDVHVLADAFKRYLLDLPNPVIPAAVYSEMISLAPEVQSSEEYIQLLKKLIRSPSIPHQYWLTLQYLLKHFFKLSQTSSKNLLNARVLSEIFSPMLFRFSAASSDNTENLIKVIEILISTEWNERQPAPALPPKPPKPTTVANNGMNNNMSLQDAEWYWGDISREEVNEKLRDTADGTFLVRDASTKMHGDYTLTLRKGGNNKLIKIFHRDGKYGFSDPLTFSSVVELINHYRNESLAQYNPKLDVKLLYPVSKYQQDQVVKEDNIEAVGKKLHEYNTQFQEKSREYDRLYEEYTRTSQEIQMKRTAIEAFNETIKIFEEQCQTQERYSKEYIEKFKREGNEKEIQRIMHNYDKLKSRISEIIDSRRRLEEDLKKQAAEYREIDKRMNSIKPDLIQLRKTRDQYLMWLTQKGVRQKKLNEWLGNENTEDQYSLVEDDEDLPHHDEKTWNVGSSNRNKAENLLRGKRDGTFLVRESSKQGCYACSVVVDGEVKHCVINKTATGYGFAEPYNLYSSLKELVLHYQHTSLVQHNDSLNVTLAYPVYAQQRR
Sequence of MAPK1 (ERK2) (P28482 whole entry): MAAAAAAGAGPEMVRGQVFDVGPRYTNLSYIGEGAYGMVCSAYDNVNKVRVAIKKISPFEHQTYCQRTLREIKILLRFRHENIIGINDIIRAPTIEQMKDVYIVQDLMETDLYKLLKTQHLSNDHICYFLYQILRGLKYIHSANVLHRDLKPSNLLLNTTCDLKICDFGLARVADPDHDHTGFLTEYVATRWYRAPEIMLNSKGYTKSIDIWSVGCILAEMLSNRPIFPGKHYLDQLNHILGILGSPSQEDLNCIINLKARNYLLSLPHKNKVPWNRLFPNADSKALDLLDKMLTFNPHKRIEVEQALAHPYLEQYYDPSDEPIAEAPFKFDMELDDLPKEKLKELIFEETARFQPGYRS

## O=C1C=C(Nc2ccc(OCc3cn(Cc4ccc(Cl)c(Cl)c4)nn3)cc2)C(=O)c2ccccc21 [Compound 4e, 2-((4-((1-(3,4-Dichlorobenzyl)−1H-1,2,3-triazol-4-yl)methoxy)phenyl)amino) naphthalene-1,4-dione]
MAPK1 (ERK2)
  inhibition at 10 µM: 6%
CHEK1
  inhibition at 10 µM: -12%
PDGFRA (PDGFRα)
  inhibition at 10 µM: 43%
AsPC-1 cells [1]
  Apoptosis induction (nuclear morphology): characteristic features of apoptosis including densely packed chromatin within the nucleus as well as nuclear fragmentation
CDK2/cyclin A
  inhibition at 10 µM: 9%
EBC-1
  IC50: 300 ± 100 nM
Mia-Paca-2
  IC50: 800 ± 100 nM
PIK3CA
  inhibition at 10 µM: 3%
AsPC-1 cells [2]
  Effect on cell cycle distribution (S and G2/M phases): dose-dependently increased the number of cells in the S phase and simultaneously reduced the cells in G2/M phase
  Effect on sub-G1 and G0/G1 phases: increase in cells in sub-G1 phase, while reducing G0/G1 cells
HT-29
  IC50: 600 ± 200 nM
ERBB2 (Her-2)
  inhibition at 10 µM: 2%
